Measured values published in patent publication US7943159B1, “Female sex pheromone of the dogwood borer (DWB), Synanthedon scitula, and attraction inhibitor (antagonist)” (The United States of America as represented by the …, priority 2006, dated 2011).
“Also recorded” adds a separate entry of the source.

Legend:
adult male DWB antenna = test: Coupled GC-EAD (electroantennographic detection) of synthetic octadecadienyl acetates; design: species or system Synanthedon scitula; details: for EAD activity in 10 ng of loading: 10 ng loading, male DWB antenna, footnote: relative to E,Z-2,13-octadecadienyl acetate; for EAD activity / electroantennogram response: male DWB antennae, synthetic standards
Excerpt: Identification of peaks: 1, ZZ 3,13-ODDA; 2, EZ 2,13-ODDA; and 3, ZE 3,13-ODDA. Electrophysiological. Recordings and Mass Spectrometry: The coupled gas chromatographic-electroantennographic detection (GC-EAD) system used was as previously described (Zhang, A., and S. Polavarapu, J. Chem. Ecol., 29: 2153-2164 (2003); Zhang, A., and S. Polavarapu, J. Chem. Ecol., 30: 1531-1545 (2004); Zhang, A., et al., J. Chem. Ecol., 23: 231-245 (1997)). A Hewlett Packard (HP) 6890 gas chromatograph equipped with a 60 m×0.25-mm i.d., 0.25-mm film-thickness DB-[…] capillary column (J&W Scientific Inc., Folsom, Calif., 120° C. for 2 min, then programmed to 250° C. at 10° C./min and held for 10 min) or a 60 m×0.25-mm i.d., 0.25-mm film-thickness DB-5 capillary column (J&W Scientific Inc., 100° C. for 2 min, then programmed to 250° C. at 15° C./min and held for 10 min) in the splitless mode with hydrogen as carrier (1.4 ml/min) was used for GC-EAD analysis. Electronic impact (EI) gas chromatography-mass spectrometry (GC-MS) was conducted on a Hewlett-Packard 6890 GC coupled to a HP 5973 Mass Selective Detector using an identical DB-[…] capillary column (120° C. for 2 min, then programmed to 230° C. at 15° C./min and held for 25 min for regular analysis, but with helium as carrier gas. A 70 eV electron beam was employed for sample ionization.

[1] = tested on: male DWB (Synanthedon scitula); test: Field trapping tests with lure-baited sticky traps in apple orchards; format: in vivo
Method: Field Trapping Tests: Red natural rubber septa (5 mm, Wheaton, N.J.) loaded with the desired rates of Z,Z-3,13-ODDA and the blends in […] of hexane solution were used for field deployment. The same amount of solvent (hexane) was loaded on the septum for the blank control. After loading, the solvent was allowed to evaporate in a fume hood for 30 min. Lures were then wrapped in aluminum foil, stored in 20 ml plastic vials, and shipped by express carrier on the same day. Upon arrival, the lures were kept in a freezer at −10° C. until deployed. All field tests were conducted in commercial apple fields in WV, VA, and NC using Pherocon 1C or Delta sticky traps (Trécé, Salinas, Calif.). Traps were placed in trees at ˜1.2 m above the ground (Riedi, Fla., et al., Cana. Entomol., 117: 1367-1377 (1985)). At each location, experimental lures were randomized within each of three to five rows (depending on the number of replicates per test) and separated by at least one buffer row, and traps were spaced at a minimum of ˜25 m intervals within a row. Traps were rotated among positions within each row at weekly intervals for the duration of each test. The number of dogwood borer, peachtree borer, lilac borer, and other male Sesiidae moths captured were recorded weekly. In the first comparison trial, the following lures were deployed: the single component (100% Z,Z-3,13 ODDA); the binary blend (Z,Z-3,13-ODDA:E,Z-2,13-ODDA=94:6); a second two-component blend (Z,Z-3,13-ODDA:Z,E-3,13-ODDA=94:6, based on the molar amount of the Z,Z-3,13-octadecadienyl acetate in the composition); the trinary blend (Z,Z-3,13-ODDA:E,Z-2,13-ODDA:Z,E-3,13-ODDA=88:6:6); and control. Next, to evaluate the attractive effect of addition of third component, 0.5, 1, 3, or 10% based on the molar amount of the Z,Z-3,13-octadecadienyl acetate of Z,E-3,13-ODDA were added into the binary blend individually. Similarly, 0.5, 1, 3, or 10% of E,Z-2,13-ODDA were individually added into a blend consisted of Z,Z-3,13-ODDA:Z, E-3,13-ODDA (94:6) to evaluate the effect of E,Z-2,13-ODDA. In another comparison, 0.5, 1, 2, or 3% E,Z-3,13-ODDA was added to the trinary blend. Dose response tests of the trinary and binary blends were deployed in each location, with doses consisting of 10-μg, 100-μg, 300-μg, 1-mg, and 10-mg (trinary blend); and 10-μg, 100-μg, 300-μg, 500-μg, and 1-mg (binary blend), respectively. Caged live virgin females (2-4 days old and 1 female per cage) were deployed in traps to provide a natural source of pheromone for comparison with traps baited with the binary and trinary blends. In a final comparison to determine over what distance DWB can detect the trinary blend, we compared captures in traps baited with the trinary blend deployed within an infested apple orchard, and 50 and […] outside the orchard within a large wood lot habitat.
Statistics: The data on control traps were omitted in the analysis because of zero trap catches. Unless otherwise specified, data on trap catches from each test were logarithm transformed (log χ+1) to normalize the variance before analysis. Means were compared by one-way analysis of variance (ANOVA) followed by Ryan-Einot-Gabriel-Welsch Range test (SPSS 10.0 for Windows, George and Mallery, 2002) for significance at α=0.05.

dogwood borer (DWB) = test: Species-specificity of lures: share of dogwood borer in captures; format: in vivo, Synanthedon scitula; details: across all sites; FIG. 10
Method: Field Trapping Tests: Red natural rubber septa (5 mm, Wheaton, N.J.) loaded with the desired rates of Z,Z-3,13-ODDA and the blends in […] of hexane solution were used for field deployment. The same amount of solvent (hexane) was loaded on the septum for the blank control. After loading, the solvent was allowed to evaporate in a fume hood for 30 min. Lures were then wrapped in aluminum foil, stored in 20 ml plastic vials, and shipped by express carrier on the same day. Upon arrival, the lures were kept in a freezer at −10° C. until deployed. All field tests were conducted in commercial apple fields in WV, VA, and NC using Pherocon 1C or Delta sticky traps (Trécé, Salinas, Calif.). Traps were placed in trees at ˜1.2 m above the ground (Riedi, Fla., et al., Cana. Entomol., 117: 1367-1377 (1985)). At each location, experimental lures were randomized within each of three to five rows (depending on the number of replicates per test) and separated by at least one buffer row, and traps were spaced at a minimum of ˜25 m intervals within a row. Traps were rotated among positions within each row at weekly intervals for the duration of each test. The number of dogwood borer, peachtree borer, lilac borer, and other male Sesiidae moths captured were recorded weekly. […]

Row | SMILES | EAD activity in 10 ng of loading (adult male DWB antenna) | EAD activity / electroantennogram response (adult male DWB antenna) | other results
1 | CCCC/C=C/CCCCCCCC/C=C/CCOC(C)=O [(E,E)-3,13-Octadecadienyl acetate, E,E-3,13-octadecadienyl acetate, reference compound] | 0.12 (±3.5% SD, n = 3) mV | – | –
2 | CCCC/C=C\CCCCCCCCC/C=C/COC(C)=O [(E,Z)-2,13-Octadecadienyl acetate, E,Z-2,13-octadecadienyl acetate] | 0.13 (±1.2% SD, n = 3) mV | confirmed by synthetic standards | effect on attraction of adding the compound to Z,Z-3,13-ODDA:Z,E-3,13-ODDA (94:6) blend ([1]; 0.5 to 10% added, FIG. 4): significantly increased; amount added to 94:6 (Z,Z-3,13-ODDA:Z,E-3,13-ODDA) blend at which captures increased significantly ([1]; all locations, FIG. 4): ≤ 1%
3 | CCCC/C=C/CCCCCCCC/C=C\CCOC(C)=O [(Z,E)-3,13-Octadecadienyl acetate, Z,E-3,13-octadecadienyl acetate] | 0.25 (±1.0% SD, n = 3) mV | – | effect on attraction of adding the compound to the binary blend ([1]; 0.5 to 10% added to binary blend (94:6), FIG. 3, listed as Z,E-3,13-ODDA): did not cause a significant increase in attraction; also recorded: did not observe a similar response
4 | CCCC/C=C/CCCCCCCCC/C=C\COC(C)=O [(Z,E)-2,13-Octadecadienyl acetate, reference compound] | 0.030 (±0.10% SD, n = 3) mV | – | –
5 | CCCC/C=C/CCCCCCCCC/C=C/COC(C)=O [(E,E)-2,13-Octadecadienyl acetate, reference compound] | 0.012 (±0.21% SD, n = 3) mV | – | –
6 | CCCC/C=C\CCCCCCCC/C=C\CCOC(C)=O [(Z,Z)-3,13-Octadecadienyl acetate, Z,Z-3,13-octadecadienyl acetate] | 0.30 (±9.5% SD, n = 3) mV | confirmed by synthetic standards | percentage of captures that were male dogwood borers (dogwood borer (DWB)): 92-99.6%; attraction of male DWB (trap captures), blend comparison ([1]; septa containing 1-mg, NC, VA, WV, FIG. 2, listed as Z,Z-3,13-ODDA): surprisingly attractive; also recorded: reliably attract male DWB
7 | CCCC/C=C\CCCCCCCC/C=C/CCOC(C)=O [(E,Z)-3,13-Octadecadienyl acetate, E,Z-3,13-octadecadienyl acetate] | 0.30 (±8.7% SD, n = 3) mV | just as strong an electroantennogram response as Z,Z-3,13-ODDA | effect on trap captures of DWB (attraction antagonism) ([1]; added to trinary blend, FIG. 5, listed as E,Z-3,13-ODDA): reduced trap captures of DWB significantly; also recorded: inhibit (antagonize) DWB male response and movement; amount added to trinary blend that significantly inhibited (reduced) trap captures ([1]; all locations, FIG. 5, listed as E,Z-3,13-ODDA): ≤ 0.5%; amount added to trinary blend that significantly inhibited (reduced) trap captures ([1]; all locations, FIG. 5, listed as E,Z-3 μl 3-ODDA): 0.5-1%
8 | CCCC/C=C\CCCCCCCCC/C=C\COC(C)=O [(Z,Z)-2,13-Octadecadienyl acetate, reference compound] | 0.029 (±0.79% SD, n = 3) mV | – | –
